Measurements published in patent US4594338A, “Thioether derivatives of tylosin” (priority 1984, dated 1986).
Values after ≈ are worked out from the molar mass of the structure shown.

Tests used:
Format in all cases: cell-based
[1] = tested on: Micrococcus luteus ATCC 9341; test: Minimum inhibitory concentration, Micrococcus luteus ATCC 9341; conditions: ATCC9341
Source text: (§1) The compounds of formula (I) show antibacterial activity against both gram-positive and gram-negative bacteria. The following Tables illustrate minimum inhibitory concentrations (MIC's) for a representative sample of the compounds of the invention against gram-positive and gram-negative bacteria as well as bacteria resistant to antibiotics. In the Tables abbreviations with the symbol r attached designate resistant bacterial strains.

[2] = tested on: Pseudomonas aeruginosa P-3; test: Minimum inhibitory concentration, Pseudomonas aeruginosa P-3; conditions: P3
Source text: as §1

Bacillus cereus IFO 3001 = test: Minimum inhibitory concentration, Bacillus cereus IFO 3001; conditions: IFO3001
Source text: as §1

[3] = tested on: Proteus vulgaris IFO 3167; test: Minimum inhibitory concentration, Proteus vulgaris IFO 3167; conditions: IFO3167
Source text: as §1

[4] = tested on: Klebsiella pneumoniae ATCC 10031; test: Minimum inhibitory concentration, Klebsiella pneumoniae ATCC 10031; conditions: ATCC10031
Source text: as §1

[5] = tested on: Mycobacterium smegmatis ATCC 607; test: Minimum inhibitory concentration, Mycobacterium smegmatis ATCC 607; conditions: Mycolicibacterium smegmatis, ATCC607
Source text: as §1

Escherichia coli NIHJ = test: Minimum inhibitory concentration, Escherichia coli NIHJ
Source text: as §1

[6] = tested on: Salmonella typhirium KB 20; test: Minimum inhibitory concentration, Salmonella typhirium KB 20; conditions: KB20, read-out: minimum inhibitory concentration (MIC)
Source text: as §1

[7] = tested on: Staphylococcus aureus KB 199(EM^r); test: Minimum inhibitory concentration, Staphylococcus aureus KB 199(EM^r); conditions: Staphylococcus aureus KB 199, erythromycin-resistant (EM^r)
Source text: as §1

[8] = tested on: Staphylococcus aureus ATCC 6538P; test: Minimum inhibitory concentration, Staphylococcus aureus ATCC 6538P; conditions: ATCC6538P
Source text: as §1

[9] = tested on: Bacillus subtilis PCI 219; test: Minimum inhibitory concentration, Bacillus subtilis PCI 219; conditions: PCI219
Source text: as §1

[10] = tested on: Klebsiella pneumoniae PCI 602; test: Minimum inhibitory concentration, Klebsiella pneumoniae PCI 602; conditions: PCI602
Source text: as §1

[11] = tested on: Staphylococcus aureus KB 191 (MC, TC^r); test: Minimum inhibitory concentration against resistant strain Staphylococcus aureus KB 191
Source text: as §1

[12] = tested on: Staphylococcus aureus KB 219 (MC, TC, PC, CP^r); test: Minimum inhibitory concentration against resistant strain Staphylococcus aureus KB 219
Source text: as §1

[13] = tested on: Staphylococcus aureus KB 224 (MC, TC, KM, SM^r); test: Minimum inhibitory concentration against resistant strain Staphylococcus aureus KB 224
Source text: as §1

[14] = tested on: Staphylococcus aureus KB 221 (MC, TC, CP, KM^r); test: Minimum inhibitory concentration against resistant strain Staphylococcus aureus KB 221
Source text: as §1

SMILES	MIC [1] [µg/mL]	MIC [2] [µg/mL]	MIC (Bacillus cereus IFO 3001) [µg/mL]	MIC [3] [µg/mL]	MIC [4] [µg/mL]	MIC [5] [µg/mL]	MIC (Escherichia coli NIHJ) [µg/mL]	MIC [6] [µg/mL]	MIC [7] [µg/mL]	MIC [8] [µg/mL]	MIC [9] [µg/mL]	MIC [10] [µg/mL]	MIC [11] [µg/mL]	MIC [12] [µg/mL]	MIC [13] [µg/mL]	MIC [14] [µg/mL]
CCC1OC(=O)CC(O)C(C)C(OC2OC(C)C(O)C(N(C)C)C2O)C(CC=O)CC(C)C(=O)CC(SCCO)C(C)=CC1COC1OC(C)C(O)C(OC)C1OC (stereo not drawn) [O, 10,11-Dihydro-11-(2-hydroxyethylthio)demycarosyltylosin]	0.4 (≈ 0.471 µM)	> 100	3.12 (≈ 3.67 µM)	> 100	> 100	> 100	> 100	> 100	> 100	12.5 (≈ 14.7 µM)	12.5 (≈ 14.7 µM)	> 100				
CCC1OC(=O)CC(O)C(C)C(OC2OC(C)C(OC3CC(C)(O)C(O)C(C)O3)C(N(C)C)C2O)C(CC=O)CC(C)C(=O)CC(Sc2ccc(N)cc2)C(C)=CC1COC1OC(C)C(O)C(OC)C1OC (stereo not drawn) [Compound U, 11-(p-Aminophenylthio)-10,11-dihydrotylosin]	0.78 (≈ 0.749 µM)	> 100	1.56 (≈ 1.5 µM)	> 100	> 100	> 100	> 100	> 100	> 100	6.25 (≈ 6 µM)	0.4 (≈ 0.384 µM)	> 100	25 (≈ 24 µM)	50 (≈ 48 µM)	25 (≈ 24 µM)	
CCC1OC(=O)CC(O)C(C)C(OC2OC(C)C(OC3CC(C)(O)C(O)C(C)O3)C(N(C)C)C2O)C(CC=O)CC(C)C(=O)CC(Sc2ccc(C)cc2)C(C)=CC1COC1OC(C)C(O)C(OC)C1OC (stereo not drawn) [Compound V, 10,11-Dihydro-11-(p-methylphenylthio)tylosin]	< 0.1	> 100	0.4 (≈ 0.384 µM)	50 (≈ 48.1 µM)	100 (≈ 96.1 µM)	50 (≈ 48.1 µM)	100 (≈ 96.1 µM)	100 (≈ 96.1 µM)	25 (≈ 24 µM)	3.12 (≈ 3 µM)	0.4 (≈ 0.384 µM)	100 (≈ 96.1 µM)				
CCSC1CC(=O)C(C)CC(CC=O)C(OC2OC(C)C(OC3CC(C)(O)C(O)C(C)O3)C(N(C)C)C2O)C(C)C(O)CC(=O)OC(CC)C(COC2OC(C)C(O)C(OC)C2OC)C=C1C (stereo not drawn) [Compound R, 11-(Ethylthio)-10,11-dihydrotylosin]	< 0.1	> 100	0.78 (≈ 0.797 µM)	> 100	100 (≈ 102 µM)	100 (≈ 102 µM)	100 (≈ 102 µM)	> 100	> 100	1.56 (≈ 1.59 µM)	0.78 (≈ 0.797 µM)	100 (≈ 102 µM)				
CCC1OC(=O)CC(O)C(C)C(OC2OC(C)C(OC3CC(C)(O)C(O)C(C)O3)C(N(C)C)C2O)C(CC=O)CC(C)C(=O)CC(Sc2ccc(OC)cc2)C(C)=CC1COC1OC(C)C(O)C(OC)C1OC (stereo not drawn) [Compound W, 10,11-Dihydro-11-(p-methoxyphenylthio)tylosin]	< 0.1	> 100	0.4 (≈ 0.379 µM)	50 (≈ 47.3 µM)	100 (≈ 94.7 µM)	> 100	100 (≈ 94.7 µM)	100 (≈ 94.7 µM)	50 (≈ 47.3 µM)	3.12 (≈ 2.95 µM)	0.4 (≈ 0.379 µM)	100 (≈ 94.7 µM)	50 (≈ 47.3 µM)	100 (≈ 94.7 µM)	50 (≈ 47.3 µM)	
CCC1OC(=O)CC(O)C(C)C(OC2OC(C)C(OC3CC(C)(O)C(O)C(C)O3)C(N(C)C)C2O)C(CC(Sc2ccccc2)Sc2ccccc2)CC(C)C(=O)C=CC(C)=CC1COC1OC(C)C(O)C(OC)C1OC (stereo not drawn) [Compound C, Tylosin Diphenyl Thioacetal]	0.2 (≈ 0.179 µM)		0.78 (≈ 0.697 µM)	> 100	> 100	50 (≈ 44.7 µM)	> 100	> 100	> 50	12.5 (≈ 11.2 µM)	0.78 (≈ 0.697 µM)	> 100				
CCSC1CC(=O)C(C)CC(CC=O)C(OC2OC(C)C(O)C(N(C)C)C2O)C(C)C(O)CC(=O)OC(CC)C(COC2OC(C)C(O)C(OC)C2OC)C=C1C (stereo not drawn) [Compound N, 11-(Ethylthio)-10,11-dihydrodemycarosyltylosin]	0.2 (≈ 0.24 µM)	> 100	0.78 (≈ 0.935 µM)	> 100	50 (≈ 59.9 µM)	> 100	> 100	> 100	> 100	1.56 (≈ 1.87 µM)	0.78 (≈ 0.935 µM)	> 100				
CCC1OC(=O)CC(O)C(C)C(OC2OC(C)C(O)C(N(C)C)C2O)C(CC=O)CC(C)C(=O)CC(Sc2ccc(N)cc2)C(C)=CC1COC1OC(C)C(O)C(OC)C1OC (stereo not drawn) [Compound P, 11-(p-Aminophenylthio)-10,11-dihydrodemycarosyltylosin]	0.2 (≈ 0.223 µM)	> 100	0.78 (≈ 0.869 µM)	> 100	100 (≈ 111 µM)	> 100	> 100	> 100	> 100	3.12 (≈ 3.48 µM)	3.12 (≈ 3.48 µM)	> 100				
CCC1OC(=O)CC(O)C(C)C(OC2OC(C)C(O)C(N(C)C)C2O)C(CC=O)CC(C)C(=O)CC(Sc2ccccc2)C(C)=CC1COC1OC(C)C(O)C(OC)C1OC (stereo not drawn) [Compound Q, 10,11-Dihydro-11-(phenylthio)demycarosyltylosin]	< 0.1	> 100	0.2 (≈ 0.227 µM)	50 (≈ 56.7 µM)	100 (≈ 113 µM)	> 100	100 (≈ 113 µM)	100 (≈ 113 µM)	> 100	0.78 (≈ 0.884 µM)	0.78 (≈ 0.884 µM)	100 (≈ 113 µM)				
CCC1OC(=O)CC(O)C(C)C(OC2OC(C)C(OC3CC(C)(O)C(O)C(C)O3)C(N(C)C)C2O)C(CC=O)CC(C)C(=O)CC(Sc2ccc(Cl)cc2)C(C)=CC1COC1OC(C)C(O)C(OC)C1OC (stereo not drawn) [Compound T, 11-(p-Chlorophenylthio)-10,11-dihydrotylosin]	< 0.1	> 100	0.4 (≈ 0.377 µM)	50 (≈ 47.1 µM)	100 (≈ 94.3 µM)	50 (≈ 47.1 µM)	100 (≈ 94.3 µM)	100 (≈ 94.3 µM)	25 (≈ 23.6 µM)	3.12 (≈ 2.94 µM)	0.4 (≈ 0.377 µM)	100 (≈ 94.3 µM)	25 (≈ 23.6 µM)	50 (≈ 47.1 µM)	25 (≈ 23.6 µM)	
CCC1OC(=O)CC(O)C(C)C(OC2OC(C)C(OC3CC(C)(O)C(O)C(C)O3)C(N(C)C)C2O)C(CC=O)CC(C)C(=O)CC(Sc2ccccc2)C(C)=CC1COC1OC(C)C(O)C(OC)C1OC (stereo not drawn) [Compound S, 10,11-Dihydro-11-(phenylthio)tylosin]	< 0.1	> 100	0.4 (≈ 0.39 µM)	100 (≈ 97.4 µM)	100 (≈ 97.4 µM)	50 (≈ 48.7 µM)	100 (≈ 97.4 µM)	100 (≈ 97.4 µM)	50 (≈ 48.7 µM)	1.56 (≈ 1.52 µM)	0.4 (≈ 0.39 µM)	100 (≈ 97.4 µM)	50 (≈ 48.7 µM)	100 (≈ 97.4 µM)	50 (≈ 48.7 µM)	50 (≈ 48.7 µM)
